Test results published in patent publication US20250351832A1, “PHYTOCHEMICALS AS BIOPESTICIDES AND BIOSTIMULANTS” (KAY BEE BIO ORGANICS PVT. LTD., priority 2024, published 2025).
Entries after “also recorded” stand apart in the source; their conditions may differ. Like-named read-outs stand apart in the source and are kept apart here.

Tests used:
tomato seedlings = assay: Response of tomato plants, greenhouse growth (Ex. 30); assay type: in vivo; conditions: tomato seedlings, dose 1 ml/gm/lit; for Plant Height 5th Day / Stem Girth 5th Day / CCI 5th Day: 5th day after application; for Plant Height 10th Day / Stem Girth 10th Day / CCI 10th Day: 10th day after application; for Plant Height % Increase over pre on 10th Day / Stem Girth % Increase over pre on 10th Day / CCI % Increase over pre on 10th Day / Root Length (cm) 10th Day / Root Length % Increase over control: 10th day; for Root Length % Increase over control: vs water control
Helicoverpa armigera [1] = conditions: Helicoverpa armigera on okra fruits, dose 1 ml/gm/lit., 72 Hrs.; for Total No. of dead insect at 72 Hrs.: 10 insects/treatment, 4 replications; for % Corrected Mortality at 72 Hrs.: corrected for water control
Mite [2] = conditions: mite on okra plants, green house, dose 1 ml/gm/lit. spray; for % Mortality at 48 Hrs. / Total No. of dead insect at 48 Hrs.: 48 hrs after application; for % Corrected Mortality at 48 Hrs.: corrected for water control
Aphid [3] = conditions: Aphids on cotton plants, green house; dose 1 ml/gm/lit.; 10 insects/plant, 10 plants/treatment; 48 hrs
Spodoptera litura [4] = conditions: Spodoptera litura 3rd instar on cabbage plants, dose 1 ml/gm/lit. spray; for % Mortality at 72 Hrs.: 72 hrs after application; for % Corrected Mortality at 72 Hrs.: corrected for water control
Thrips [5] = conditions: thrips on cotton plants, greenhouse, dose 1 ml/gm/lit. spray; for % Mortality at 48 Hrs. / Total No. of dead insect at 48 Hrs.: 48 hrs after application; for % Corrected Mortality at 48 Hrs.: corrected for water control
Spodoptera litura [6] = conditions: Spodoptera litura on castor leaves; dose 1 ml/gm/lit.; 10 insects/treatment; 72 hrs after application
Thrips [7] = conditions: Thrips on cotton leaves; dose 1 ml/gm/lit.; 10 insects/treatment; 48 hrs after application
Spodoptera litura [8] = assay: whole plant or invertebrate; conditions: 72 h
[9] = Table 13, effect on plants, descriptive; cited from earlier work
Thrips [10] = assay: whole plant or invertebrate; conditions: in Gossypium hirsutum, 48 h
Aphid [11] = assay: whole plant or invertebrate; conditions: 48 h
Mealy Bug [12] = conditions: mealy bug on cotton plants, green house, dose 1 ml/gm/lit. spray; for % Mortality at 48 Hrs. / Total No. of dead insect at 48 Hrs.: 48 hrs after application; for % Corrected Mortality at 48 Hrs.: corrected for water control
Alternaria alternata [13] = assay: Alternaria leaf spot/blight on inoculated tomato plants (Ex. 28); assay type: in vivo; conditions: tomato plants, Alternaria alternata; after 7 days; dose 1 ml/gm/lit
Alternaria alternata [14] = assay: In vitro poisoned food technique against fungus (Ex. 20); assay type: cell-based; conditions: poisoned food technique, PDA medium, dose 1 ml/gm/lit., after seven days; for inhibition of growth at 1 mL or g/L: vs untreated control, read-out: % Inhibition of growth
Mealy Bug [15] = conditions: Mealy Bug on cotton leaves, dose 1 ml/gm/lit., 48 Hrs.; for Total No. of dead insect at 48 Hrs.: 10 insects/treatment, 4 replications; for % Corrected Mortality at 48 Hrs.: corrected for water control
Aphid [16] = conditions: Dose 1 ml/gm/lit.; for Total No. of dead insect at 48 Hrs.: 10 insects/treatment, 4 replications, cotton leaves
Mite [17] = conditions: Dose 1 ml/gm/lit.; for Total No. of dead insect at 48 Hrs.: 10 insects/treatment, 4 replications, okra leaves
Helicoverpa armigera [18] = conditions: Helicoverpa armigera 3rd instar on chickpea plants, dose 1 ml/gm/lit. spray; for % Mortality at 72 Hrs.: 72 hrs after application; for % Corrected Mortality at 72 Hrs.: corrected for water control
chili seedlings = assay: Response of chili plants, greenhouse growth (Ex. 31); assay type: in vivo; conditions: chili seedlings, dose 1 ml/gm/lit; for CCI 5th Day / Plant Height (cm) 5th Day: 5th day after application; for CCI 10th Day / Plant Height (cm) 10th Day: 10th day after application; for CCI % Increase over pre on 10th Day / Plant Height % Increase over pre on 10th Day / Root Lenght (cm) 10th Day / Stem Girth % Increase over pre on 10th Day / Root Lenght % Increase over control: 10th day; for Root Lenght % Increase over control: vs water control
[19] = read-out: % Corrected Mortality at 72 Hrs.
[20] = read-out: % Mortality at 72 Hrs.
[21] = read-out: % Corrected Mortality at 48 Hrs.
[22] = read-out: % Mortality at 48 Hrs.

Structure (SMILES): CC12CCC(CC1)C(C)(C)O2 [1,8 cineole]
- Plant Height 5th Day (tomato seedlings): 6.84 cm
- Stem Girth 5th Day (tomato seedlings): 1.74 mm
- Plant Height 10th Day (tomato seedlings): 7.53 cm
- Stem Girth 10th Day (tomato seedlings): 2.16 mm
- Plant Height % Increase over pre on 10th Day (tomato seedlings): 29.60%
- Stem Girth % Increase over pre on 10th Day (tomato seedlings): 58.82%
- CCI 5th Day (tomato seedlings): 13.55
- CCI % Increase over pre on 10th Day (tomato seedlings): 26.08%
- Root Length (cm) 10th Day (tomato seedlings): 4.07 cm
- CCI 10th Day (tomato seedlings): 14.55
- Root Length % Increase over control (tomato seedlings): 22.24%
- Total No. of dead insect at 72 Hrs. (Helicoverpa armigera [1]): 5.50
- % Mortality at 72 Hrs. (Helicoverpa armigera [1]): 55.00%
- % Corrected Mortality at 72 Hrs. (Helicoverpa armigera [1]): 55.00%
- % Mortality at 48 Hrs. (Mite [2]): 22.50%
- Total No. of dead insect at 48 Hrs. (Mite [2]): 22.50
- % Corrected Mortality at 48 Hrs. (Mite [2]): 18.42%
- Total No. of dead insect at 48 Hrs. (Aphid [3]): 62.50
- % Mortality at 72 Hrs. (Spodoptera litura [4]): 70.00%
- % Corrected Mortality at 72 Hrs. (Spodoptera litura [4]): 68.42%
- % Mortality at 48 Hrs. (Thrips [5]): 67.50%
- Total No. of dead insect at 48 Hrs. (Thrips [5]): 67.50
- % Corrected Mortality at 48 Hrs. (Thrips [5]): 63.89%
- Total No. of dead insect at 72 Hrs. (Spodoptera litura [6]): 6.00
- Total No. of dead insect at 48 Hrs. (Thrips [7]): 7.00
- mortality at 1 mL or g/L (Spodoptera litura [8]; [19]): 57.9%
- mortality at 1 mL or g/L (Spodoptera litura [8]; [20]): 60%
- Phytotonic Effect [9]: Boost chlorophyll; also recorded: Trigger the nutrition
- mortality at 1 mL or g/L (Thrips [10]; [21]): 65.7%
- mortality at 1 mL or g/L (Thrips [10]; [22]): 70%
- mortality at 1 mL or g/L (Aphid [11]; [21]): 55.9%
- mortality at 1 mL or g/L (Aphid [11]; [22]): 62.5%
- % Mortality at 48 Hrs. (Mealy Bug [12]): 45.00%
- Total No. of dead insect at 48 Hrs. (Mealy Bug [12]): 45.00
- % Corrected Mortality at 48 Hrs. (Mealy Bug [12]): 38.89%
- % Disease reduction over Control (Alternaria alternata [13]): 46.28%
- Mean colony Diameter (mm) (Alternaria alternata [14]): 72.00 mm
- inhibition of growth at 1 mL or g/L (Alternaria alternata [14]): 18.2%
- Total No. of dead insect at 48 Hrs. (Mealy Bug [15]): 5.50
- % Mortality at 48 Hrs. (Mealy Bug [15]): 55.00%
- % Corrected Mortality at 48 Hrs. (Mealy Bug [15]): 52.63%
- Total No. of dead insect at 48 Hrs. (Aphid [16]): 6.50
- % Corrected Mortality at 48 Hrs. (Aphid [16]): 60.00%
- % Mortality at 48 Hrs. (Aphid [16]): 65.00%
- Total No. of dead insect at 48 Hrs. (Mite [17]): 2.50
- % Corrected Mortality at 48 Hrs. (Mite [17]): 18.92%
- % Mortality at 48 Hrs. (Mite [17]): 25.00%
- % Mortality at 72 Hrs. (Helicoverpa armigera [18]): 52.50%
- % Corrected Mortality at 72 Hrs. (Helicoverpa armigera [18]): 52.50%
- CCI 5th Day (chili seedlings): 9.69
- Plant Height (cm) 5th Day (chili seedlings): 6.99 cm
- CCI % Increase over pre on 10th Day (chili seedlings): 42.63%
- Plant Height % Increase over pre on 10th Day (chili seedlings): 49.60%
- Root Lenght (cm) 10th Day (chili seedlings): 3.26 cm
- Stem Girth % Increase over pre on 10th Day (chili seedlings): 44.88%
- CCI 10th Day (chili seedlings): 12.58
- Plant Height (cm) 10th Day (chili seedlings): 7.54 cm
- Root Lenght % Increase over control (chili seedlings): 19.07%

Structure (SMILES): C=CCc1ccc(OC)cc1 [Methyl chavicol]
- Plant Height 5th Day (tomato seedlings): 7.16 cm
- Stem Girth 5th Day (tomato seedlings): 1.50 mm
- Plant Height 10th Day (tomato seedlings): 7.86 cm
- Stem Girth 10th Day (tomato seedlings): 2.10 mm
- Plant Height % Increase over pre on 10th Day (tomato seedlings): 28.43%
- Stem Girth % Increase over pre on 10th Day (tomato seedlings): 55.56%
- CCI 5th Day (tomato seedlings): 14.23
- CCI % Increase over pre on 10th Day (tomato seedlings): 23.12%
- Root Length (cm) 10th Day (tomato seedlings): 4.13 cm
- CCI 10th Day (tomato seedlings): 15.23
- Root Length % Increase over control (tomato seedlings): 24.05%
- Total No. of dead insect at 72 Hrs. (Helicoverpa armigera [1]): 6.25
- % Mortality at 72 Hrs. (Helicoverpa armigera [1]): 62.50%
- % Corrected Mortality at 72 Hrs. (Helicoverpa armigera [1]): 62.50%
- % Mortality at 48 Hrs. (Mite [2]): 42.50%
- Total No. of dead insect at 48 Hrs. (Mite [2]): 42.50
- % Corrected Mortality at 48 Hrs. (Mite [2]): 39.47%
- Total No. of dead insect at 48 Hrs. (Aphid [3]): 67.50
- % Mortality at 72 Hrs. (Spodoptera litura [4]): 62.50%
- % Corrected Mortality at 72 Hrs. (Spodoptera litura [4]): 60.53%
- % Mortality at 48 Hrs. (Thrips [5]): 57.50%
- Total No. of dead insect at 48 Hrs. (Thrips [5]): 57.50
- % Corrected Mortality at 48 Hrs. (Thrips [5]): 52.78%
- Total No. of dead insect at 72 Hrs. (Spodoptera litura [6]): 6.50
- Total No. of dead insect at 48 Hrs. (Thrips [7]): 5.50
- mortality at 1 mL or g/L (Spodoptera litura [8]; [19]): 63.2%
- mortality at 1 mL or g/L (Spodoptera litura [8]; [20]): 65%
- mortality at 1 mL or g/L (Thrips [10]; [21]): 48.6%
- mortality at 1 mL or g/L (Thrips [10]; [22]): 55%
- mortality at 1 mL or g/L (Aphid [11]; [21]): 61.8%
- mortality at 1 mL or g/L (Aphid [11]; [22]): 67.5%
- % Mortality at 48 Hrs. (Mealy Bug [12]): 60.00%
- Total No. of dead insect at 48 Hrs. (Mealy Bug [12]): 60.00
- % Corrected Mortality at 48 Hrs. (Mealy Bug [12]): 55.56%
- % Disease reduction over Control (Alternaria alternata [13]): 48.76%
- Mean colony Diameter (mm) (Alternaria alternata [14]): 54.00 mm
- inhibition of growth at 1 mL or g/L (Alternaria alternata [14]): 38.6%
- Total No. of dead insect at 48 Hrs. (Mealy Bug [15]): 6.25
- % Mortality at 48 Hrs. (Mealy Bug [15]): 62.50%
- % Corrected Mortality at 48 Hrs. (Mealy Bug [15]): 60.53%
- Total No. of dead insect at 48 Hrs. (Aphid [16]): 6.50
- % Corrected Mortality at 48 Hrs. (Aphid [16]): 60.00%
- % Mortality at 48 Hrs. (Aphid [16]): 65.00%
- Total No. of dead insect at 48 Hrs. (Mite [17]): 4.50
- % Corrected Mortality at 48 Hrs. (Mite [17]): 40.54%
- % Mortality at 48 Hrs. (Mite [17]): 45.00%
- % Mortality at 72 Hrs. (Helicoverpa armigera [18]): 67.50%
- % Corrected Mortality at 72 Hrs. (Helicoverpa armigera [18]): 67.50%
- CCI 5th Day (chili seedlings): 12.70
- Plant Height (cm) 5th Day (chili seedlings): 5.97 cm
- CCI % Increase over pre on 10th Day (chili seedlings): 38.53%
- Plant Height % Increase over pre on 10th Day (chili seedlings): 44.42%
- Root Lenght (cm) 10th Day (chili seedlings): 3.11 cm
- Stem Girth % Increase over pre on 10th Day (chili seedlings): 45.91%
- CCI 10th Day (chili seedlings): 15.1
- Plant Height (cm) 10th Day (chili seedlings): 6.21 cm
- Root Lenght % Increase over control (chili seedlings): 13.83%
